# Patent US11958826B1, “6′-(2-chlorophenyl)-2′-ethoxy-3,4′-bipyridine-3′- carbonitrile as an antimicrobial compound” (KING FAISAL UNIVERSITY, priority 2023, dated 2024)
# What was measured:
# [1] = tested on: Staphylococcus aureus; assay: Agar plate disc-diffusion, antibacterial activity by inhibition zone; assay type: cell-based; settings: Staphylococcus aureus (Gram positive)
# Method: (§1) The agar plate disc-diffusion method was applied. […] The discs were then placed onto the surface of agar plates (nutrient agar for bacteria and Sabouraud's dextrose agar for fungi) seeded with the test organism. Each plate contained 15 ml of the agar medium, previously seeded with 0.2 mL of the broth culture of each organism pregrown for 18 hours. The plates were incubated at 37° C. for 48 hours and 72 hours for fungi. The inhibition zones were measured in mm. Discs impregnated with DMSO were used as a control, and their inhibition zone was subtracted from the tested compound's actual inhibition zone.
# (§2) The results of the antimicrobial testing can be observed in Tables 1 and 2, below, with ciprofloxacin serving as a reference.
# [2] = tested on: Escherichia coli; assay: as above; assay type: cell-based; settings: Escherichia coli (Gram negative)
# Method: as §1, §2
# [3] = tested on: Pseudomonas aeruginosa; assay: as above; assay type: cell-based; settings: Pseudomonas aeruginosa (Gram negative)
# Method: as §1, §2
# [4] = tested on: Bacillus Cereus; assay: as above; assay type: cell-based; settings: Bacillus Cereus (Gram positive)
# Method: as §1, §2
# [5] = tested on: Chrysosporium keratinophilum; assay: Agar plate disc-diffusion, antifungal activity by inhibition zone; assay type: cell-based
# Method: as §1, §2
# [6] = tested on: Aspergillus flavus; assay: as above; assay type: cell-based
# Method: as §1, §2
# [7] = A = concentration of comp. = 10,000 μL
# [8] = B = concentration of comp. = 30.000 μL
# [9] = C = concentration of comp. = 50,000 μL
structure (smiles),measurement,setting,value
"CCOc1nc(-c2ccccc2Cl)cc(-c2cccnc2)c1C#N [Compound 4, 6′-(2-chlorophenyl)-2′-ethoxy-3,4′-bipyridine-3′-carbonitrile]",inhibition zone,[1]; [7],18 mm
same,inhibition zone,[1]; [8],24 mm
same,inhibition zone,[1]; [9],36 mm
same,inhibition zone,[2]; [7],26 mm
same,inhibition zone,[2]; [8],28 mm
same,inhibition zone,[2]; [9],40 mm
same,inhibition zone,[3]; [7],25 mm
same,inhibition zone,[3]; [8],27 mm
same,inhibition zone,[3]; [9],38 mm
same,inhibition zone,[4]; [7],25 mm
same,inhibition zone,[4]; [8],27 mm
same,inhibition zone,[4]; [9],39 mm
same,inhibition zone,[5]; [7],25 mm
same,inhibition zone,[5]; [8],27 mm
same,inhibition zone,[5]; [9],44 mm
same,inhibition zone,[6]; [7],20 mm
same,inhibition zone,[6]; [8],24 mm
same,inhibition zone,[6]; [9],35 mm
same,melting point,,156 to 158 °C
